Patent US20080234130A1, “Compositions providing tolerance to multiple herbicides and methods of use thereof” (priority 2005, published 2008)

Tests used:
[1] = test system: parent elite stiff stalk inbred corn; assay: Preemergence effect of ALS herbicides (fresh weight, visual injury); settings: 200 g/ha, mean of four replications; for % Visual Injury Patent elite stiff stalk inbred: 4 weeks after treatment, 0% no injury, 100% plant death; for Fresh Weight (g) patent elite stiff stalk inbred: fresh shoots 4 weeks after treatment, untreated 36.7 g
[2] = test system: heterozygous GAT-HRA corn; assay: Postemergence effect of ALS herbicides, glyphosate and glufosinate (fresh weight, visual injury); settings: 200 g/ha (glyphosate 3472 g ae/ha, glufosinate ammonium 1870 g/ha), mean of four replications; for % Visual Injury Heterozygous GAT-HRA: 2 weeks after treatment, 0% no injury, 100% plant death; for Fresh Weight (g) Heterozygous GAT-HRA: applied two weeks after planting, fresh shoots 2 weeks after treatment, untreated 98.8 g
[3] = test system: parent elite stiff stalk inbred corn; assay: as above; settings: 200 g/ha (glyphosate 3472 g ae/ha, glufosinate ammonium 1870 g/ha), mean of four replications; for % Visual Injury Parent elite stiff stalk inbred: 2 weeks after treatment, 0% no injury, 100% plant death; for Fresh Weight (g) Parent elite stiff stalk inbred: applied two weeks after planting, fresh shoots 2 weeks after treatment, untreated 76.4 g
[4] = test system: heterozygous GAT-HRA corn; assay: Preemergence effect of ALS herbicides (fresh weight, visual injury); settings: 200 g/ha, mean of four replications; for % Visual Injury Heterozygous GAT-HRA: 4 weeks after treatment, 0% no injury, 100% plant death; for Fresh Weight (g) Heterozygous GAT-HRA: fresh shoots 4 weeks after treatment, untreated 47.0 g

Compound | % Visual Injury Patent elite stiff stalk inbred [1] | Fresh Weight (g) patent elite stiff stalk inbred [1] | % Visual Injury Heterozygous GAT-HRA [2] | Fresh Weight (g) Heterozygous GAT-HRA [2] | % Visual Injury Parent elite stiff stalk inbred [3] | Fresh Weight (g) Parent elite stiff stalk inbred [3] | % Visual Injury Heterozygous GAT-HRA [4] | Fresh Weight (g) Heterozygous GAT-HRA [4]
COCc1cnc(C2=NC(C)(C(C)C)C(=O)N2)c(C(=O)O)c1 (stereo not shown) [Imazamox] | 99% | 0.8 g | 4% | 90.9 g | 100% | 2.2 g | 13% | 47.5 g
CCS(=O)(=O)c1nc2ccccn2c1S(=O)(=O)NC(=O)Nc1nc(OC)cc(OC)n1 [Sulfosulfuron, N-[[(4,6-dimethoxy-2-pyrimidinyl)amino]carbonyl]-2-(ethylsulfonyl)imidazo[1,2-a]pyridine-3-sulfonamide] | 100% | – | 3% | – | 97% | – | 18% | –
CCc1cnc(C2=NC(C)(C(C)C)C(=O)N2)c(C(=O)O)c1 (stereo not shown) [Imazethapyr] | 69% | – | 9% | – | 97% | – | 20% | –
Cc1ccn2nc(S(=O)(=O)Nc3c(F)cccc3F)nc2n1 [Flumetsulam, N-(2,6-difluorophenyl)-5-methyl[1,2,4]triazolo[1,5-a]pyrimidine-2-sulfonamide] | 13% | – | 3% | – | 85% | – | 13% | –
CCOc1ccccc1OS(=O)(=O)NC(=O)Nc1nc(OC)cc(OC)n1 [Ethoxysulfuron, 2-ethoxyphenyl[[(4,6-dimethoxy-2-pyrimidinyl)amino]carbonyl]sulfamate] | 63% | – | 15% | – | 88% | – | 25% | –
COc1cc(OC)nc(NC(=O)NS(=O)(=O)c2ncccc2C(=O)N(C)C)n1 [Nicosulfuron, 2-[[[[(4,6-dimethoxy-2-pyrimidinyl)amino]carbonyl]amino]sulfonyl]-N,N-dimethyl-3-pyridinecarboxamide] | 43% | 33.6 g | 0% | 94.7 g | 24% | 62.7 g | 0% | 50.3 g
COc1cc(OC)nc(NC(=O)NS(=O)(=O)c2ncccc2OCC(F)(F)F)n1 [Trifloxysulfuron Na^+, N-[[(4,6-dimethoxy-2-pyrimidinyl)amino]-carbonyl]-3-(2,2,2-trifluoroethoxy)-2-pyridinesulfonamide] | 100% | 0.0 g | 29% | 86.6 g | 100% | 1.0 g | 0% | 50.8 g
Imazamethabenz-methyl | 61% | 36.2 g | 16% | 95.0 g | 11% | 66.9 g | 15% | 48.5 g
COC(=O)c1c(Cl)nn(C)c1S(=O)(=O)NC(=O)Nc1nc(OC)cc(OC)n1 [Halosulfuron-methyl, methyl 3-chloro-5-[[[[(4,6-dimethoxy-2-pyrimidinyl)amino]-carbonyl]amino]sulfonyl]-1-methyl-1H-pyrazole-4-carboxylate] | 30% | – | 8% | – | 14% | – | 15% | –
COC(=O)c1ccccc1CS(=O)(=O)NC(=O)Nc1nc(OC)cc(OC)n1 [Bensulfuron-methyl, methyl 2-[[[[[(4,6-dimethoxy-2-pyrimidinyl)amino]carbonyl]amino]sulfonyl]methyl]benzoate] | 23% | – | 14% | – | 93% | – | 10% | –
COc1nn(C(=O)NS(=O)(=O)c2ccccc2OC(F)(F)F)c(=O)n1C [Flucarbazone Na^+, 4,5-dihydro-3-methoxy-4-methyl-5-oxo-N-[[2-(trifluoromethoxy)phenyl]sulfonyl]-1H-1,2,4-triazole-1-carboxamide] | 100% | – | 14% | – | 100% | – | 40% | –
CO/N=C(/C)c1cccc(Oc2nc(OC)cc(OC)n2)c1C(=O)OC [Pyriminobac-methyl] | 83% | 30.4 g | 4% | 95.2 g | 93% | 7.6 g | 20% | 39.9 g
COc1nc(C)nc(NC(=O)NS(=O)(=O)c2ccccc2Cl)n1 [Chlorsulfuron, 2-chloro-N-[[(4-methoxy-6-methyl-1,3,5-triazin-2-yl)amino]-carbonyl]benzenesulfonamide] | 100% | – | 13% | – | 100% | – | 33% | –
COC(=O)c1ccccc1S(=O)(=O)NC(=O)Nc1nc(C)cc(C)n1 [Sulfometuron-methyl, methyl 2-[[[[(4,6-dimethyl-2-pyrimidinyl)amino]carbonyl]amino]sulfonyl]-benzoate] | 100% | 0.0 g | 2% | 104.5 g | 100% | 2.0 g | 6% | 47.3 g
COC(=O)c1cccc(C)c1S(=O)(=O)NC(=O)Nc1nc(OCC(F)(F)F)nc(N(C)C)n1 [Triflusulfuron-methyl] | 100% | 26.3 g | 8% | 110.9 g | 100% | 2.1 g | 5% | 53.5 g
COc1cc(OC)nc(Sc2cccc(Cl)c2C(=O)[O-])n1.[Na+] [Pyrithiobac Na^+, pyrithiobac-sodium] | 100% | 0.0 g | 9% | 87.9 g | 100% | 2.8 g | 0% | 48.6 g
CCCOc1nn(C(=O)NS(=O)(=O)c2ccccc2C(=O)OC)c(=O)n1C [Propoxycarbazone Na^+, methyl 2-[[[(4,5-dihydro-4-methyl-5-oxo-3-propoxy-1H-1,2,4-triazol-1-yl)carbonyl]amino]sulfonyl]benzoate] | 100% | 0.6 g | 9% | 101.2 g | 100% | 1.9 g | 100% | 46.7 g
CC(C)C1(C)N=C(c2nc3ccccc3cc2C(=O)O)NC1=O (stereo not shown) [Imazaquin] | 99% | 1.5 g | 2% | 113.3 g | 100% | 4.4 g | 28% | 45.4 g
CCOc1nc(NC)nc(NC(=O)NS(=O)(=O)c2ccccc2C(=O)OC)n1 [Ethametsulfuron-methyl, methyl 2-[[[[[4-ethoxy-6-(methylamino)-1,3,5-triazin-2-yl]amino]carbonyl]amino]sulfonyl]benzoate] | 100% | 1.6 g | 6% | 98.0 g | 96% | 5.6 g | 88% | 50.1 g
CP(=O)(O)CCC(N)C(=O)O (stereo not shown) [Glufosinate ammonium] | – | – | 1% | 112.3 g | 99% | 2.4 g | – | –
